Marks after values point to notes of the source that are not given here.
Legend:
HeLa cells = assay: Cell cycle analysis with HeLa cells; assay type: cell-based, human; details: 18 hr
LOX Human Melanoma = assay: Human tumor xenograft test, LOX; assay type: in vivo, athymic mice; details: for tumor growth inhibition (activity call): LOX melanoma; for T/C on day 0 / T/C on day 7 / T/C on day 13: LOX, days 1, 5, 9, 13
Method: The ability of compounds of this invention to inhibit tumor growth in animals is studied in the athymic mouse xenograft standard pharmacological test. Female nu/nu mice in an outbred albino background are obtained from Charles River Laboratories (Wilmington, Mass.). Animals are injected subcutaneously on the flank with the desired tumor cell suspension. Several days later, mice with tumors of approximately 150 mm^3 are selected from those injected (staged) and randomly distributed into groups of 5-10. The day of staging is called day 0. Compounds of the invention, usually formulated in saline (exceptions are noted in tables), are administered to animals by intravenous injection or oral gavage on various schedules starting on day 0 or 1, as noted in the tables. The control group in each experiment is dosed with vehicle on the same schedule. Tumor size is measured every 3-7 days with calipers in two orthogonal dimensions, and tumor volume is calculated from the formula volume=[(length×width^2)/2].
Tumor/Control (T/C) is obtained by dividing the mean tumor volume of the treated group by the mean tumor volume of the control group on each measurement day. A treatment dose is defined as active if it produced a statistically significant T/C of 0.50 or less. A p value≦0.05, determined by one-side Student's t-test, is required for statistical significance. A treatment dose is defined as toxic if more than 10% of the animals died from a compound-related toxicity.

## CNCCCOc1cc(F)c(-c2c(Cl)nc3ncnn3c2N[C@@H](C)C(F)(F)F)c(F)c1.Cl [Example 2a, 5-Chloro-6-{2,6-difluoro-4-[3-(methylamino)propoxy]phenyl}-N-[(1S)-2,2,2-trifluoro-1-methylethyl][1,2,4]triazolo[1,5-a]pyrimidin-7-amine hydrogen chloride]
HeLa cells; 20 nM
  Percent in Cell Cycle Phase >4N: 2%
  Percent in Cell Cycle Phase Apop: 28%
  Percent in Cell Cycle Phase G1: 41%
  Percent in Cell Cycle Phase G2/M: 16%
  Percent in Cell Cycle Phase S: 14%
HeLa cells; 30 nM
  Percent in Cell Cycle Phase >4N: 2%
  Percent in Cell Cycle Phase Apop: 62%
  Percent in Cell Cycle Phase G1: 12%
  Percent in Cell Cycle Phase G2/M: 16%
  Percent in Cell Cycle Phase S: 10%
HeLa cells; 40 nM
  Percent in Cell Cycle Phase >4N: 2%
  Percent in Cell Cycle Phase Apop: 44%
  Percent in Cell Cycle Phase G1: 5%
  Percent in Cell Cycle Phase G2/M: 39%
  Percent in Cell Cycle Phase S: 9%
HeLa cells; 50 nM
  Percent in Cell Cycle Phase >4N: 4%
  Percent in Cell Cycle Phase Apop: 25%
  Percent in Cell Cycle Phase G1: 5%
  Percent in Cell Cycle Phase G2/M: 58%
  Percent in Cell Cycle Phase S: 9%
HeLa cells; 60 nM
  Percent in Cell Cycle Phase >4N: 4%
  Percent in Cell Cycle Phase Apop: 24%
  Percent in Cell Cycle Phase G1: 4%
  Percent in Cell Cycle Phase G2/M: 58%
  Percent in Cell Cycle Phase S: 9%
HeLa cells; 70 nM
  Percent in Cell Cycle Phase >4N: 4%
  Percent in Cell Cycle Phase Apop: 22%
  Percent in Cell Cycle Phase G1: 6%
  Percent in Cell Cycle Phase G2/M: 57%
  Percent in Cell Cycle Phase S: 11%
HeLa cells; 80 nM
  Percent in Cell Cycle Phase >4N: 4%
  Percent in Cell Cycle Phase Apop: 26%
  Percent in Cell Cycle Phase G1: 7%
  Percent in Cell Cycle Phase G2/M: 52%
  Percent in Cell Cycle Phase S: 11%
HeLa cells; 90 nM
  Percent in Cell Cycle Phase >4N: 4%
  Percent in Cell Cycle Phase Apop: 30%
  Percent in Cell Cycle Phase G1: 7%
  Percent in Cell Cycle Phase G2/M: 46%
  Percent in Cell Cycle Phase S: 13%
HeLa cells; 100 nM
  Percent in Cell Cycle Phase >4N: 4%
  Percent in Cell Cycle Phase Apop: 34%
  Percent in Cell Cycle Phase G1: 7%
  Percent in Cell Cycle Phase G2/M: 41%
  Percent in Cell Cycle Phase S: 15%
HeLa cells; 110 nM
  Percent in Cell Cycle Phase >4N: 4%
  Percent in Cell Cycle Phase Apop: 37%
  Percent in Cell Cycle Phase G1: 9%
  Percent in Cell Cycle Phase G2/M: 37%
  Percent in Cell Cycle Phase S: 14%
HeLa cells; 120 nM
  Percent in Cell Cycle Phase >4N: 4%
  Percent in Cell Cycle Phase Apop: 39%
  Percent in Cell Cycle Phase G1: 8%
  Percent in Cell Cycle Phase G2/M: 36%
  Percent in Cell Cycle Phase S: 15%
LOX Human Melanoma; 1 mg/kg intravenously on days 1, 5, 9, and 13
  tumor growth inhibition (activity call): not at 1 mg/kg
LOX Human Melanoma; 6 and 3 mg/kg intravenously on days 1, 5, 9, and 13
  tumor growth inhibition (activity call): active
LOX Human Melanoma; 1 mg/kg IV
  T/C on day 0: 1.00
  T/C on day 7: 0.81
  T/C on day 13: 0.95
LOX Human Melanoma; 3 mg/kg IV
  T/C on day 0: 1.00
  T/C on day 7: 0.31**
  T/C on day 13: 0.36
LOX Human Melanoma; 6 mg/kg IV
  T/C on day 0: 1.00
  T/C on day 7: 0.17**
  T/C on day 13: 0.12**

From patent US7507739B2, “6-[(substituted)phenyl]triazolopyrimidines as anticancer agents” (Wyeth, priority 2003, dated 2009)
